These results are taken from patent publication US20060142374A1, “Crystal for oral solid drug and oral solid drug for dysuria treatment containing the same” (KISSEI PHARMACEUTICAL CO., LTD., priority 2002, published 2006).

Common to all, as to assay type: physicochemical
Data set [1] can be described thus: Stability test (appearance by naked eye, purity by liquid chromatography after storage). The following applies: for Stability in respect of purity and appearance: summary of storage conditions 1-4. The protocol:
Appearance and purity of each crystal obtained in Examples 1-3 and an amorphous obtained by freeze-drying a solution of KMD-3213 in dioxane were determined after allowing to stand under following conditions. As for appearance, it was determined by color and properties with the naked eye. Purity was determined by integral percentage method with liquid chromatography.
Condition 1: Allowing to stand at 40° C. in the constant temperature device for 28 days
Condition 2: Allowing to stand at 60° C. in the constant temperature device for 28 days
Condition 3: Allowing to stand at 80° C. in the constant temperature device for 25 days
Condition 4: Allowing to stand at 40° C. and relative humidity 75% in the constant temperature device for 28 days
The Liquid Chromatography Condition:
Detector: ultraviolet absorption spectrophotometer (wave length: 225 nm)
Column: Intertsil ODS-3 (GL Science, 5 μm, 4.6 mm×25 cm)
Column temperature: about 25° C.
Mobile Phase: To 3.9 g of sodium dihydrogen phosphate was added 2.5 mL of diluted phosphoric acid solution (1→20) accurately, and water was added to make 1000 mL of a solution accurately. A 5:2 mixed solution of the resulting solution and acetonitrile.

Data set [2] can be described thus: Moisture absorption test (weight change after storage). The following applies: for Moisture absorption (hygroscopicity): summary, compared with the amorphous. The method, then:
In the same manner as that of Test Example 1, the crystals obtained in Examples 1-3 and the amorphous were used for the test. Approximately 1 g of test substance was weighed accurately and put it into a sample vial. After the test substance was allowed to stand in an opening constant temperature and humidity device under following condition, their differences of weights were measured.
Condition 1: Allowing to stand at 25° C. and 60% of relative humidity in the constant temperature and humidity device for 3 days
Condition 2: Allowing to stand at 40° C. and 75% of relative humidity in the constant temperature and humidity device for 3 days

Data set [3] is described as follows: Stability to light on preservation. Conditions: content of active ingredient decreases depending on preserved condition with time.
Setting [4] is: Condition 1: 40° C. for 28 days.
Setting [5] is: Condition 2: 60° C. for 28 days.
Where [6] appears, read: Condition 3: 80° C. for 25 days.
Where [7] appears, read: Condition 4: 40° C. and relative humidity 75% for 28 days.
The mark [8] stands for this setting: Initial, liquid chromatography, integral percentage method.
Where [9] appears, read: Condition 1: 25° C. and 60% relative humidity for 3 days.
Where [10] appears, read: Condition 2: 40° C. and 75% relative humidity for 3 days.

Take `C[C@H](Cc1cc2c(c(C(N)=O)c1)N(CCCO)CC2)NCCOc1ccccc1OCC(F)(F)F` [β, KMD-3213]: the Appearance entry in data set [1] (setting [4]) was “Pale yellow powder”; in data set [1] (setting [5]), “Pale yellowish”; in data set [1] (setting [6]), “Pale brown powder”; in data set [1] (setting [7]), “Pale yellow powder”; in data set [1] (Initial), “Pale yellow powder”. For the same compound, the “Purity (%)” value turned out to be 99.73% in data set [1] (setting [4]); 99.57% in data set [1] (setting [5]); 98.42% in data set [1] (setting [6]); 99.69% in data set [1] (setting [7]); 99.83% in data set [1] (setting [8]). The results for the “Change(%) of weight” value in data set [2] (setting [9]) and in data set [2] (setting [10]) were “+0.07%” and −0.08%, respectively. Moreover, the “Moisture absorption (hygroscopicity)” value in data set [2] is “absorbing moisture scarcely”.
`C[C@H](Cc1cc2c(c(C(N)=O)c1)N(CCCO)CC2)NCCOc1ccccc1OCC(F)(F)F` [γ, KMD-3213]: the Appearance entry in data set [1] (setting [4]), in data set [1] (setting [5]), in data set [1] (setting [6]), in data set [1] (setting [7]) and in data set [1] (Initial) was “Pale yellow powder” each time. In addition, the “Purity (%)” value in data set [1] (setting [4]) came to 99.85%; in data set [1] (setting [5]) it was 99.84%; in data set [1] (setting [6]), 99.64%; in data set [1] (setting [7]), 99.85%; in data set [1] (setting [8]) it was 99.88%. Besides, the “Change(%) of weight” value is given as 0.00% in data set [2] (setting [9]) and −0.19% in data set [2] (setting [10]). Moreover, in data set [2], the “Moisture absorption (hygroscopicity)” value is reported as “absorbing moisture scarcely”.
`C[C@H](Cc1cc2c(c(C(N)=O)c1)N(CCCO)CC2)NCCOc1ccccc1OCC(F)(F)F` [α, KMD-3213]: the Appearance result is given as “White powder” in data set [1] (setting [4]); “White powder” in data set [1] (setting [5]); “Pale yellow” in data set [1] (setting [6]); “White powder” in data set [1] (setting [7]); “White powder” in data set [1] (Initial). The “Purity (%)” value in data set [1] (setting [4]) was 99.84%; in data set [1] (setting [5]) it was 99.84%; in data set [1] (setting [6]), 99.58%; in data set [1] (setting [7]), 99.85%; in data set [1] (setting [8]), 99.90%. For the same compound, the “Stability in respect of purity and appearance” value in data set [1] (listed as crystal form a) is “extremely stable”; in data set [1] (listed as crystal form α) it was “the most stable”. Further, the “Change(%) of weight” value is −0.01% in data set [2] (setting [9]) and −0.20% in data set [2] (setting [10]). Also, the “Moisture absorption (hygroscopicity)” value in data set [2] was “absorbing moisture scarcely”.
`C[C@H](Cc1cc2c(c(C(N)=O)c1)N(CCCO)CC2)NCCOc1ccccc1OCC(F)(F)F` [amorphous, KMD-3213]: the Appearance entry is on record as “White powder” in data set [1] (setting [4]); “Pale yellow” in data set [1] (setting [5]); “Pale yellowish” in data set [1] (setting [6]); “White powder” in data set [1] (setting [7]); “White powder” in data set [1] (Initial). Moreover, the “Purity (%)” value in data set [1] (setting [4]) was found to be 99.66%; in data set [1] (setting [5]) it was 99.56%; in data set [1] (setting [6]), 99.53%; in data set [1] (setting [7]), 99.71%; in data set [1] (setting [8]), 99.79%. Also, the “Change(%) of weight” value in data set [2] (setting [9]) is reported as “+1.61%”; in data set [2] (setting [10]) it was “+1.31%”.
For `C[C@H](Cc1cc2c(c(C(N)=O)c1)N(CCCO)CC2)NCCOc1ccccc1OCC(F)(F)F` [KMD-3213], the Stability for light result in data set [3] is on record as “unstable for light relatively”.
